For this test, the target named is T1, human TRPA1 (Homo sapiens, UniProt O75762).
T1 construct: expressed in transfected cells; host or cells: CHO cells
Nature of the test: TRPA1 FLIPR Tetra calcium influx assay in CHO cells (block of cinnamaldehyde-induced calcium influx). It is filed as cell-based. As to conditions: CHO cells expressing TRPA1, agonist cinnamaldehyde 75 uM, read-out: hTRPA1 CHO Ca2+ AUC EVO (IC50). As to the method: IC50s (effective concentration) of compounds on the human and rat TRPA1 channels were determined using a FLIPR Tetra instrument. CHO cells expressing TRPA1 were plated into 384-well plates, incubated overnight at 37 C, and loaded with BD calcium indicator dye for 1 hr at 37° C. followed by 15 minutes at room temperature. The assay buffer was Hank's Balanced Salt Solution (HBSS) containing 20 mM HEPES (pH readjusted to 7.4) along with 0.02% BSA.
Following dye load and plate cool down, compounds were added to the cells using FLIPR Tetra. Plates were then incubated with compounds for 20 minutes at room temperature prior to adding agonist. Following this incubation, ˜EC80 concentration of cinnamaldehyde (75 uM for human TRPA1 and 45 uM for rat TRPA1) was added to active the channels and block of cinnamaldehyde induced calcium influx was measured.
IC50s were fit with a standard Hill function, keeping the Hill coefficient (n) fixed to 1.5. Fixing the Hill coefficient will generally reduce variability of the IC50 determination. The IC50s were individually examined to make sure the MIN and MAX points were set correctly prior to validation of the results.

The mark [1] stands for this setting: Table 2, 20 min compound incubation, Hill coefficient fixed to 1.5.
[2] abbreviates: Table 1, with vs without substituent at R2/R3.

pIC50: −log10 of the molar value. Like-named read-outs stand apart in the source and are kept apart here.

One may read the pIC50 as the IC50 on a negative log10 scale, so that one unit is a factor of ten.

T1 sequence (O75762 whole entry): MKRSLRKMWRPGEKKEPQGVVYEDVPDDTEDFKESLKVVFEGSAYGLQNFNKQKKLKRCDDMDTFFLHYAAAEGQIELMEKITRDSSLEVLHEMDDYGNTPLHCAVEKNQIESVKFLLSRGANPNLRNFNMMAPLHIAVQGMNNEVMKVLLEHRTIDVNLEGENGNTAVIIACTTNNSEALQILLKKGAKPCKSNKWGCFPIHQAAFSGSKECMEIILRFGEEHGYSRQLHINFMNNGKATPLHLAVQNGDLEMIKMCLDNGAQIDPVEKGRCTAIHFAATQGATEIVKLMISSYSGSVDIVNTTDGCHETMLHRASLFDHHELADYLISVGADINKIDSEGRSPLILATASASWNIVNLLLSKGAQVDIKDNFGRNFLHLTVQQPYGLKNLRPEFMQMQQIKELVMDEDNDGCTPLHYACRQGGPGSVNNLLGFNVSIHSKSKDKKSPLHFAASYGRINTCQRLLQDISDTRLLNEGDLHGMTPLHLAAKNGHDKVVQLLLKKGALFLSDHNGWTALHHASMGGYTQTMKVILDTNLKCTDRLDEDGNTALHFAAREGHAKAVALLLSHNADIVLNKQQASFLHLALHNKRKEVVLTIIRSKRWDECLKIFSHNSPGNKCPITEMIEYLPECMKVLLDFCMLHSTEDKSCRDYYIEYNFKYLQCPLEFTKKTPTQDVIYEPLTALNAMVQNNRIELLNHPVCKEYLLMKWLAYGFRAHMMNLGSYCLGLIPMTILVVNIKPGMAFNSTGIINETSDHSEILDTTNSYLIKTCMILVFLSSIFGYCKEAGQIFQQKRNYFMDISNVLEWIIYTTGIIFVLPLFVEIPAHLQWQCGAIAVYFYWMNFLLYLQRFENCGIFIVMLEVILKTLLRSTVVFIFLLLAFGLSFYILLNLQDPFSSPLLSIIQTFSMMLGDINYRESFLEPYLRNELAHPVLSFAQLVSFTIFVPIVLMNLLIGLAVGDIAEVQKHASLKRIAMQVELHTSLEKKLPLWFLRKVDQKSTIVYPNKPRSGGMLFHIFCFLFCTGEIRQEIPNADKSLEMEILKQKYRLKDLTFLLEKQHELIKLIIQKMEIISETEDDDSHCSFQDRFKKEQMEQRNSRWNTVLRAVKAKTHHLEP

Take `O=C(NCc1cc(-c2cnc(C(F)(F)F)nc2)ncc1F)[C@H]1[C@@H]2C[C@@H]2CN1S(=O)(=O)c1ccc(F)cc1` (stereo in doubt) [Example 79, (1S,4R,5R)-3-(4-fluorophenyl)sulfonyl-N-[[5-fluoro-2-[2-(trifluoromethyl)pyrimidin-5-yl]-4-pyridyl]methyl]-3-azabicyclo[3.1.0]hexane-4-carboxamide]: the pIC50 under setting [1] is 7.84.

As for `C[C@H]1[C@H](F)C[C@@H](C(=O)NCc2cn(-c3cnc(C(F)(F)F)nc3)nc2C(F)F)N1S(=O)(=O)c1ccc(F)cc1` [Example 40, (2S,4R,5S)-N-[[3-(difluoromethyl)-1-[2-(trifluoromethyl)pyrimidin-5-yl]-1H-pyrazol-4-yl]methyl]-4-fluoro-1-[(4-fluorobenzene)sulfonyl]-5-methylpyrrolidine-2-carboxamide], the pIC50 under setting [1] was 7.37.

Consider `O=C(NCc1cc(-c2cnc(C(F)(F)F)nc2)ncn1)[C@@H]1CCC2(CC2)N1S(=O)(=O)c1ccc(F)cc1` [Example 4, (5S)-4-[(4-fluorobenzene)sulfonyl]-N-([6-[2-(trifluoromethyl)pyrimidin-5-yl]pyrimidin-4-yl]methyl)-4-azaspiro[2.4]heptane-5-carboxamide], for which the pIC50 under setting [1] was 7.15.

For the molecule `C[C@H]1[C@H](F)C[C@@H](C(=O)NCc2cc(-c3cnc(C(F)(F)F)nc3)ncc2F)N1S(=O)(=O)c1ccc(Cl)s1` [Example 101, (2S,4R,5S)-1-[(5-chloro-2-thienyl)sulfonyl]-4-fluoro-N-[[5-fluoro-2-[2-(trifluoromethyl)pyrimidin-5-yl]-4-pyridyl]methyl]-5-methyl-pyrrolidine-2-carboxamide], under setting [1], the pIC50 is 9.26.

On to `C[C@H]1[C@H](F)C[C@@H](C(=O)NCc2cc(-c3cnc(C(F)(F)F)nc3)ncc2F)N1S(=O)(=O)c1ccc(Cl)cc1` [Example 90], for which the pIC50 under setting [1] is 8.60.

For the molecule `C[C@H]1[C@H](F)C[C@@H](C(=O)NCc2cc(-c3cnc(C(F)(F)F)nc3)c(Cl)cn2)N1S(=O)(=O)c1ccc(F)cc1` [Example 32, (2S,4R,5S)-N-((5-chloro-4-(2-(trifluoromethyl)pyrimidin-5-yl)pyridin-2-yl)methyl)-4-fluoro-1-(4-fluorophenylsulfonyl)-5-methylpyrrolidine-2-carboxamide], under setting [1], the pIC50 is 7.98.

Turning to `C[C@H]1[C@H](F)C[C@@H](C(=O)NCc2cc(-c3cnc(C(F)(F)F)nc3)ncc2F)N1S(=O)(=O)c1ccc(F)cc1` [drawing 600, (2S,4R,5S)-4-fluoro-1-(4-fluorophenyl)sulfonyl-N-[[5-fluoro-2-[2-(trifluoromethyl)pyrimidin-5-yl]-4-pyridyl]methyl]-5-methyl-pyrrolidine-2-carboxamide], the pIC50 under setting [2] was 8.70.

Consider `C[C@H]1[C@H](F)C[C@@H](C(=O)NCc2cc(-c3ncc(C(F)(F)F)s3)c(F)cn2)N1S(=O)(=O)c1ccc(F)cc1` [Example 96, (2S,4R,5S)-4-fluoro-1-(4-fluorophenyl)sulfonyl-N-[[5-fluoro-4-[5-(trifluoromethyl)thiazol-2-yl]-2-pyridyl]methyl]-5-methyl-pyrrolidine-2-carboxamide], for which the pIC50 under setting [1] is 7.65.

Take `CCc1cc(CNC(=O)[C@@H]2C[C@@H](F)CN2S(=O)(=O)c2ccc(F)cc2)cc(-c2cnc(C(F)(F)F)nc2)n1` [Example 66, (2S,4R)-N-[[2-ethyl-6-[2-(trifluoromethyl)pyrimidin-5-yl]-4-pyridyl]methyl]-4-fluoro-1-(4-fluorophenyl)sulfonyl-pyrrolidine-2-carboxamide]: the pIC50 under setting [1] was 7.11.

Take `C[C@H]1[C@H](F)C[C@@H](C(=O)NCc2cc(-c3cnc(C(F)(F)F)nc3)ncn2)N1S(=O)(=O)c1ccc(F)cc1` [drawing 602, (2S,4R,5S)-4-fluoro-1-(4-fluorophenyl)sulfonyl-5-methyl-N-[[6-[2-(trifluoromethyl)pyrimidin-5-yl]pyrimidin-4-yl]methyl]pyrrolidine-2-carboxamide]: the pIC50 under setting [2] was 7.66.

As to `C[C@H]1[C@H](F)C[C@@H](C(=O)NCc2cc(-c3cnc(C(F)(F)F)nc3)c(Cl)cn2)N1S(=O)(=O)c1ccc(F)cc1` [drawing 604, (2S,4R,5S)-N-[[5-chloro-4-[2-(trifluoromethyl)pyrimidin-5-yl]-2-pyridyl]methyl]-4-fluoro-1-(4-fluorophenyl)sulfonyl-5-methyl-pyrrolidine-2-carboxamide], the pIC50 under setting [2] was 8.37.

Turning to `Cc1cnc(-c2cnc(C(F)(F)F)nc2)cc1CNC(=O)[C@@H]1C[C@@H](F)[C@H](C)N1S(=O)(=O)c1ccc(F)cc1` [Example 100, (2S,4R,5S)-4-fluoro-1-((4-fluorophenyl)sulfonyl)-5-methyl-N-((5-methyl-2-(2-(trifluoromethyl)pyrimidin-5-yl)pyridin-4-yl)methyl)pyrrolidine-2-carboxamide], the negative logarithm of the IC50 (pIC50) under setting [1] was 7.90.

As for `C[C@H]1[C@H](F)C[C@@H](C(=O)NCc2cc(-c3ccc(C(F)(F)F)cn3)ccn2)N1S(=O)(=O)c1ccc(F)cc1` [Example 31, (2S,4R,5S)-4-fluoro-1-(4-fluorophenylsulfonyl)-5-methyl-N-((5-(trifluoromethyl)-2,4′-bipyridin-2′-yl)methyl)pyrrolidine-2-carboxamide], the pIC50 under setting [1] is 7.23.

Take `C[C@H]1[C@H](F)C[C@@H](C(=O)NCc2cc(-c3cnc(C(F)(F)F)c(C#N)c3)ncc2F)N1S(=O)(=O)c1ccc(F)cc1` [Example 134, (2S,4R,5S)-N-[[2-[5-cyano-6-(trifluoromethyl)-3-pyridyl]-5-fluoro-4-pyridyl]methyl]-4-fluoro-1-(4-fluorophenyl)sulfonyl-5-methyl-pyrrolidine-2-carboxamide]: the pIC50 under setting [1] is 7.49.

With `C[C@H]1[C@H](F)C[C@@H](C(=O)NCc2cc(-c3cnc(C(F)(F)F)nc3)ncc2OC(F)(F)F)N1S(=O)(=O)c1ccc(F)cc1` [Example 105, (2S,4R,5S)-4-fluoro-1-(4-fluorophenyl)sulfonyl-5-methyl-N-[[5-(trifluoromethoxy)-2-[2-(trifluoromethyl)pyrimidin-5-yl]-4-pyridyl]methyl]pyrrolidine-2-carboxamide], the pIC50 under setting [1] is 9.06.

For `C[C@H]1[C@H](F)C[C@@H](C(=O)NCc2cc([C@H]3CC[C@H](C(F)(F)F)CC3)ncc2F)N1S(=O)(=O)c1ccc(F)cc1` [Example 55, (2S,4R,5S)-4-fluoro-1-(4-fluorophenyl)sulfonyl-N-[[5-fluoro-2-[4-(trifluoromethyl)cyclohexyl]-4-pyridyl]methyl]-5-methyl-pyrrolidine-2-carboxamide], under setting [1], the pIC50 was 8.23.

Regarding `C[C@H]1[C@H](F)C[C@@H](C(=O)NCc2cc(-c3cnc(C(F)(F)F)nc3)ccc2F)N1S(=O)(=O)c1ccc(F)cc1` [Example 44, (2S,4R,5S)-4-fluoro-N-(2-fluoro-5-(2-(trifluoromethyl)pyrimidin-5-yl)benzyl)-1-(4-fluorophenylsulfonyl)-5-methylpyrrolidine-2-carboxamide], under setting [1], the pIC50 is 8.13.

As to `COc1nn(-c2cnc(C(F)(F)F)nc2)cc1CNC(=O)[C@@H]1C[C@@H](F)[C@H](C)N1S(=O)(=O)c1cc2cc(F)ccc2o1` [Example 117, (2S,4R,5S)-4-fluoro-1-(5-fluorobenzofuran-2-yl)sulfonyl-N-[[3-methoxy-1-[2-(trifluoromethyl)pyrimidin-5-yl]pyrazol-4-yl]methyl]-5-methyl-pyrrolidine-carboxamide], the pIC50 under setting [1] is 8.96.

For `C[C@H]1[C@H](F)C[C@@H](C(=O)NCc2cc(-c3cnc(C(F)(F)F)nc3)ncc2C(F)(F)F)N1S(=O)(=O)c1ccc(C#N)cc1` [Example 116, (2S,4R,5S)-1-(4-cyanophenyl)sulfonyl-4-fluoro-5-methyl-N-[[5-(trifluoromethyl)-2-[2-(trifluoromethyl)pyrimidin-5-yl]-4-pyridyl]methyl]pyrrolidine-2-carboxamide], under setting [1], the pIC50 was 8.24.

For the molecule `C[C@H]1[C@H](F)C[C@@H](C(=O)NCc2cc(-c3cnc(C(F)(F)F)nc3)ncc2C(F)(F)F)N1S(=O)(=O)c1cc2cc(F)ccc2o1` [Example 153, (2S,4R,5S)-4-fluoro-1-(5-fluorobenzofuran-2-yl)sulfonyl-5-methyl-N-[[5-(trifluoromethyl)-2-[2-(trifluoromethyl)pyrimidin-5-yl]-4-pyridyl]methyl]pyrrolidine-2-carboxamide], under setting [1], the pIC50 was 9.64.

Take `C[C@H]1[C@H](F)C[C@@H](C(=O)NCc2cc(-c3cnc(C(F)(F)F)nc3)ncc2C(F)(F)F)N1S(=O)(=O)c1ccc(F)cc1` [Example 103, (2S,4R,5S)-4-fluoro-1-(4-fluorophenylsulfonyl)-5-methyl-N-((5-(trifluoromethyl)-2-(2-(trifluoromethyl)pyrimidin-5-yl)pyridin-4-yl)methyl)pyrrolidine-2-carboxamide]: the pIC50 under setting [1] is 9.11.

Consider `C[C@H]1[C@H](F)C[C@@H](C(=O)NCc2cc(OC[C@@H]3C[C@H]3C(F)(F)F)nc(C3CC3)n2)N1S(=O)(=O)c1ccc(F)cc1` [Example 132, (2S,4R,5S)-N-[[2-cyclopropyl-6-[[(1R,2R)-2-(trifluoromethyl)cyclopropyl]methoxy]pyrimidin-4-yl]methyl]-4-fluoro-1-(4-fluorophenyl)sulfonyl-5-methyl-pyrrolidine-2-carboxamide], for which the pIC50 under setting [1] was 7.82.
